Data from ChEMBL document CHEMBL5126620, “Mapping the N-Terminal Hexokinase-I Binding Site onto Voltage-Dependent Anion Channel-1 To Block Peripheral Nerve Demyelination” (J Med Chem, 2022).
Blank lines part the entries; values can stand above or below the compound they belong to. Active and inactive are the calls of the source. The calls are words filed in the database; no cut-off is given here. Numbered stars: 1 amine (or outer) side, 2 acyl side, 3 side chain; on linkers, the order of the positions; unused ones are H or OH. Square brackets hold non-standard residues; d marks the D form. Peptide text beside a SMILES is read from it. * marks the point of attachment. X2 = CC(C)(C(=O)*)n1cc(-c2cccc(C(F)(F)F)c2)nn1; X1 = CC(=O)CCCC[C@H](N[*:1])C(=O)[*:2]; Aib = CC(C)(N)C(=O)O

Key:
[1] = Inhibition of VDAC mediated mitochondrial Ca2+ release in HEK293 cells transfected with mitoGCaMP2; format: cell-based; details: Homo sapiens
HEK293 [2] = assay: Inhibition of VDAC in mitochondria of HEK293 cells transfected with mitoGCaMP2 assessed as calcium efflux by measuring mitoGCaMP2 fluorescence in cytoplasm at 33 uM by DAPI staining confocal imaging analysis; format: subcellular; details: Homo sapiens
HEK293 [3] = assay: Inhibition of VDAC in mitochondria of HEK293 cells transfected with mitoGCaMP2 assessed as calcium efflux from mitochondria by measuring decrease in mitoGCaMP2 fluorescence at 33 uM by DAPI staining confocal imaging analysis; details: Homo sapiens
Homo sapiens = organism: Homo sapiens; assay: Inhibition of VDAC (unknown origin) mediated mitochondrial Ca2+ release at 100 uM
Mus musculus [4] = organism: Mus musculus; assay: Inhibition of demyelination in sciatic nerve explant C57BL6/J mouse model assessed as reduction in fiber damage level in serum free medium at 3 uM measured after 24 hrs by coherent anti Stokes raman scattering assay; format: functional
Mus musculus [5] = organism: Mus musculus; assay: Inhibition of demyelination in sciatic nerve explant C57BL6/J mouse model assessed as reduction in fiber damage level in serum containing medium at 3 uM measured after 24 hrs by coherent anti Stokes raman scattering assay; format: functional
[6] = Metabolic stability in rat serum assessed as parent compound remaining at 66.6 uM after 1 hr incubation by LC-MS analysis relative to control; format: ADME, cell-free; details: read-out: Stability
HEK293 [7] = assay: Inhibition of VDAC in mitochondria of HEK293 cells transfected with mitoGCaMP2 assessed as calcium efflux from mitochondria by measuring decrease in mitoGCaMP2 fluorescence at 6 mM by DAPI staining confocal imaging analysis; details: Homo sapiens, time 30.0 min
[8] = Metabolic stability in rat serum assessed as parent compound remaining at 66.6 uM after 24 hr incubation by LC-MS analysis relative to control; format: ADME, cell-free; details: read-out: Stability

Compound: CC[C@H](C)[C@H](NC(=O)[C@@H](N)CCCCC(C)=O)C(=O)N[C@@H](C)C(=O)N[C@@H](C)C(=O)N[C@@H](CCC(N)=O)C(=O)N[C@@H](CC(C)C)C(=O)N[C@@H](CC(C)C)C(=O)N[C@@H](C)C(=O)N[C@@H](Cc1ccc(O)cc1)C(=O)N[C@@H](Cc1ccc(O)cc1)C(=O)N[C@@H](Cc1ccccc1)C(=O)N[C@H](C(=O)N[C@@H](CCC(=O)O)C(=O)N[C@@H](CC(C)C)C(=O)N[C@@H](CCCCN)C(=O)NCC(=O)N[C@@H](CCCNC(=N)N)C(=O)N[C@@H](CCCCN)C(=O)N[C@@H](CCCCN)C(=O)N[C@@H](CCCNC(=N)N)C(=O)N[C@@H](CCCNC(=N)N)C(=O)N[C@@H](CCC(N)=O)C(=O)N[C@@H](CCCNC(=N)N)C(=O)N[C@@H](CCCNC(=N)N)C(=O)N[C@@H](CCCNC(=N)N)C(=O)N1CCC[C@H]1C(=O)N1CCC[C@H]1C(=O)N[C@@H](CCC(N)=O)C(N)=O)[C@@H](C)O (H-[X1]IAAQLLAYYFTELKGRKKRRQRRRPPQ-NH2)
- inhibition (HEK293 [2]): Active
- inhibition (HEK293 [3]): Active
- IC50 [1]: 15.6 µM
- inhibition (Homo sapiens): Active

Compound: Ac-AQWWAYYFTEWKGRKKRRQRRRPPQ-NH2
- inhibition (Mus musculus [4]): Active

Compound: CCCC[C@H](NC(=O)[C@H](CCC(N)=O)NC(=O)[C@@H]1CCCN1C(=O)[C@@H]1CCCN1C(=O)[C@H](CCCNC(=N)N)NC(=O)[C@H](CCCNC(=N)N)NC(=O)[C@H](CCCNC(=N)N)NC(=O)[C@H](CCC(N)=O)NC(=O)[C@H](CCCNC(=N)N)NC(=O)[C@H](CCCNC(=N)N)NC(=O)[C@H](CCCCN)NC(=O)[C@H](CCCCN)NC(=O)[C@H](CCCNC(=N)N)NC(=O)CNC(C)=O)C(=O)N[C@H](C(=O)N[C@@H](C)C(=O)N[C@@H](C)C(=O)N[C@@H](CCC(N)=O)C(=O)N[C@@H](CC(C)C)C(=O)N[C@@H](CC(C)C)C(=O)N[C@@H](C)C(=O)N[C@@H](Cc1ccc(O)cc1)C(=O)N[C@@H](Cc1ccc(O)cc1)C(=O)N[C@@H](Cc1ccccc1)C(=O)N[C@H](C(=O)N[C@@H](CCC(=O)O)C(=O)N[C@@H](CC(C)C)C(=O)N[C@@H](CCCCN)C(N)=O)[C@@H](C)O)[C@@H](C)CC
- IC50 [1]: 13.9 µM

Compound: CC(=O)N[C@@H](C)C(=O)NC(C)(C)C(=O)N[C@@H](C)C(=O)NC(C)(C)C(=O)N[C@@H](C)C(=O)N[C@@H](CCC(N)=O)C(=O)N[C@@H](CC(C)C)C(=O)N[C@@H](CC(C)C)C(=O)NC(C)(C)C(=O)N[C@@H](Cc1ccc(O)cc1)C(=O)N[C@@H](Cc1ccc(O)cc1)C(=O)N[C@@H](Cc1ccccc1)C(=O)N[C@H](C(=O)N[C@@H](CCC(=O)O)C(=O)N[C@@H](CC(C)C)C(=O)N[C@@H](CCCCN)C(=O)NCC(=O)N[C@@H](CCCNC(=N)N)C(=O)N[C@@H](CCCCN)C(=O)N[C@@H](CCCCN)C(=O)N[C@@H](CCCNC(=N)N)C(=O)N[C@@H](CCCNC(=N)N)C(=O)N[C@@H](CCC(N)=O)C(=O)N[C@@H](CCCNC(=N)N)C(=O)N[C@@H](CCCNC(=N)N)C(=O)N[C@@H](CCCNC(=N)N)C(=O)N1CCC[C@H]1C(=O)N1CCC[C@H]1C(=O)N[C@@H](CCC(N)=O)C(N)=O)[C@@H](C)O (Ac-A[Aib]A[Aib]AQLL[Aib]YYFTELKGRKKRRQRRRPPQ-NH2)
- inhibition (Mus musculus [4]): Active
- inhibition (Mus musculus [5]): Active

Compound: C[C@H](NC(=O)C(C)(C)n1cc(-c2cccc(C(F)(F)F)c2)nn1)C(=O)N[C@@H](CCC(N)=O)C(=O)N[C@@H](Cc1c[nH]c2ccccc12)C(=O)N[C@@H](Cc1c[nH]c2ccccc12)C(=O)NC(C)(C)C(=O)N[C@@H](Cc1ccc(O)cc1)C(=O)N[C@@H](Cc1ccc(O)cc1)C(=O)N[C@@H](Cc1ccccc1)C(=O)N[C@H](C(=O)N[C@@H](CCC(=O)O)C(=O)N[C@@H](Cc1c[nH]c2ccccc12)C(=O)N[C@@H](CCCCN)C(=O)NCC(=O)N[C@@H](CCCNC(=N)N)C(=O)N[C@@H](CCCCN)C(=O)N[C@@H](CCCCN)C(=O)N[C@@H](CCCNC(=N)N)C(=O)N[C@@H](CCCNC(=N)N)C(=O)N[C@@H](CCC(N)=O)C(=O)N[C@@H](CCCNC(=N)N)C(=O)N[C@@H](CCCNC(=N)N)C(=O)N[C@@H](CCCNC(=N)N)C(=O)N1CCC[C@H]1C(=O)N1CCC[C@H]1C(=O)N[C@@H](CCC(N)=O)C(N)=O)[C@@H](C)O (X2-AQWW[Aib]YYFTEWKGRKKRRQRRRPPQ-NH2)
- inhibition (Mus musculus [4]): Active
- inhibition (Mus musculus [5]): Active

Compound: CC/C=C\C[C@H]1C(=O)CC[C@@H]1CC(=O)OC
- inhibition (HEK293 [7]): Active
- inhibition (HEK293 [2]): Active
- inhibition (HEK293 [3]): Active

Compound: CC(=O)N[C@@H](C)C(=O)N[C@@H](CCC(N)=O)C(=O)N[C@@H](CC(C)C)C(=O)N[C@@H](CC(C)C)C(=O)NC(C)(C)C(=O)N[C@@H](Cc1ccc(O)cc1)C(=O)N[C@@H](Cc1ccc(O)cc1)C(=O)N[C@@H](Cc1ccccc1)C(=O)N[C@H](C(=O)N[C@@H](CCC(=O)O)C(=O)N[C@@H](CC(C)C)C(=O)N[C@@H](CCCCN)C(N)=O)[C@@H](C)O (Ac-AQLL[Aib]YYFTELK-NH2)
- remaining at 24 h, 66.6 µM [8]: 65%

Next, values leading:

- IC50 [1]: 3.6 µM
Compound: Ac-AQWWAYYFTEWK-NH2

- remaining at 1 h, 66.6 µM [6]: 8%
Compound: Ac-AQLLAYYFTELK-NH2

- remaining at 24 h, 66.6 µM [8]: 75%
Compound: CC(=O)N[C@@H](C)C(=O)NC(C)(C)C(=O)N[C@@H](C)C(=O)NC(C)(C)C(=O)N[C@@H](C)C(=O)N[C@@H](CCC(N)=O)C(=O)N[C@@H](CC(C)C)C(=O)N[C@@H](CC(C)C)C(=O)NC(C)(C)C(=O)N[C@@H](Cc1ccc(O)cc1)C(=O)N[C@@H](Cc1ccc(O)cc1)C(=O)N[C@@H](Cc1ccccc1)C(=O)N[C@H](C(=O)N[C@@H](CCC(=O)O)C(=O)N[C@@H](CC(C)C)C(=O)N[C@@H](CCCCN)C(N)=O)[C@@H](C)O (Ac-A[Aib]A[Aib]AQLL[Aib]YYFTELK-NH2)
